Publication PMC4072025 (Cancer chemotherapy and pharmacology, 2013)
Entries after “also recorded” stand apart in the source; their conditions may differ.

Experiments:
[1] = cited from earlier work
[2] = Part I dose escalation to define MTD and DLTs of lapatinib plus everolimus; assay type: in vivo, human; conditions: once daily po
[3] = Steady-state everolimus PK in whole blood, alone and with lapatinib; assay type: in vivo, human; conditions: for Everolimus Tmax % change: p=0.06; for Tmax: Everolimus Tmax, mean (95% CI)
[4] = Phase I/II trial of everolimus and imatinib; cited from earlier work
[5] = test system: ER-positive breast cancer; conditions: ER-positive patients with breast cancer; cited from earlier work
[6] = Steady-state lapatinib PK in plasma, alone and with everolimus
[7] = Day 19 with lapatinib vs Day 7 alone
[8] = Day 19 with everolimus vs Day 7 alone

C#Cc1cccc(Nc2ncnc3cc(OCCOC)c(OCCOC)cc23)c1 [erlotinib]
Pharmacokinetics of erlotinib with or without everolimus [1]: similar

CO[C@H]1C[C@@H]2CC[C@@H](C)[C@@](O)(O2)C(=O)C(=O)N2CCCC[C@H]2C(=O)O[C@H]([C@H](C)C[C@@H]2CC[C@@H](OCCO)[C@H](OC)C2)CC(=O)[C@H](C)/C=C(\C)[C@@H](O)[C@@H](OC)C(=O)[C@H](C)C[C@H](C)/C=C/C=C/C=C/1C [everolimus]
Systemic exposure to everolimus, higher with erlotinib than without [1]: 17% | Maximum tolerated dose (MTD) of everolimus in the combination ([2]; combined with lapatinib 1250 mg): 5 mg | Everolimus AUC 0-inf % change [3, 7]: +26% | Everolimus Cmax % change [3, 7]: −5% | Everolimus Tmax % change [3, 7]: 44% | Everolimus Tmax % change ([3]; Day 19 with lapatinib vs Day 7 alone, listed as Everolimus): +44% | Mean everolimus CL/F at steady-state ([3]; alone): 19 (95% CI 14–24) L/hr | AUC ([3]; human, whole blood, oral, 5 mg): 348 ng·h/mL | AUC(0-inf) ([3]; human, whole blood, oral, 5 mg): 348 ng·h/mL | Cmax ([3]; human, whole blood, oral, 5 mg): 37 ng/mL | Tmax ([3]; human, whole blood, oral, 5 mg, Day 7, everolimus alone): 1.6 h | Tmax ([3]; human, whole blood, oral, Day 19, everolimus + lapatinib): 2.3 h | Mean everolimus CL/F at steady-state ([3]; in combination with lapatinib): 14 (95% CI 11–18) L/hr | Decrease of mean everolimus CL/F ([3]; in combination with lapatinib vs alone, p=0.08): 25% | PK differences when everolimus was given in combination with lapatinib ([3]; paired t-test): did not reach statistical significance | Increase of everolimus Cmax by imatinib [4]: 2.2 fold | Increase of everolimus mean AUC by imatinib [4]: 3.7 fold

C=C1C[C@@H]2[C@H](CC[C@]3(C)C(=O)CC[C@@H]23)[C@@]2(C)C=CC(=O)C=C12 [exemestane]
Progression-free survival [5]: 2.8 months

CS(=O)(=O)CCNCc1ccc(-c2ccc3ncnc(Nc4ccc(OCc5cccc(F)c5)c(Cl)c4)c3c2)o1 [lapatinib]
Maximum tolerated dose (MTD) of lapatinib in the combination ([2]; combined with everolimus 5 mg): 1250 mg | Lapatinib Cmax ([6]; Day 19, lapatinib + everolimus, steady state, plasma, mean (95% CI)): 2520 (2020–3130) μg/L | Lapatinib AUC 0-inf % change [6, 8]: essentially unchanged | Lapatinib Cmax % change [6, 8]: +7% | Lapatinib Tmax % change [6, 8]: +33% | Lapatinib AUC 0-inf % change ([6]; Day 19 with everolimus vs Day 7 alone, listed as Lapatinib): +10% | Mean lapatinib Ctrough at steady-state ([6]; alone): 800 (95% CI 600–1120) μg/L | AUC ([6]; human, plasma, oral): 33900 ng·h/mL | AUC ([6]; human, plasma, oral, 1250 mg): 37400 ng·h/mL | AUC(0-inf) ([6]; human, plasma, oral, 1250 mg): 33900 ng·h/mL | Mean lapatinib Ctrough at steady-state ([6]; in combination with everolimus): 1060 (95% CI 760–1470) μg/L | Differences in steady-state lapatinib PK with or without everolimus co-administration ([6]; paired t-test): no significant influence; also recorded: not statistically significant
